From patent US12479843B2, “Spiro ring-containing quinazoline compounds” (WIGEN BIOMEDICINE TECHNOLOGY (SHANGHAI) CO., LTD., priority 2019, dated 2025)

How the values were obtained:
H358 cells = assay: Antiproliferative activity against H358 cells (Cell Titer Glow, ultra-low attachment plate); format: cell-based; conditions: Homo sapiens, NCI-H358, 72 h, 96-well ultra-low attachment plate, three days after addition of compound, Cell Titer Glow
Description: 2500 H358 cells were seeded in a 96-well ultra-low attachment plate (corning, 7007). After one day of growth, a serially diluted compound (a maximum concentration of 5 μM, 5-fold dilution, a total of five doses) was added. Three days after the addition of the compound, Cell Titer Glow (Promega, G9681) was added to evaluate pellet growth, and the IC50 value was calculated.

pERK level in H358 cells = assay: pERK and ERK protein content assay in H358 cells (ELISA); format: cell-based; conditions: Homo sapiens, NCI-H358, compound 1 μM, 24 h, pERK/ERK ratio compared with DMSO group, read-out: Inhibition rate (%) of pERK level
Description: H358 cells were seeded in a 24-well plate. After one day of growth, a test compound (at a concentration of 1 μM) was added. After 24 h of action of the compound, the cells were lysed, and the cell lysate was transferred to a 96-well ELISA plate. The levels of pERK and ERK in the lysate were measured using an ELISA kit (abcam 176660). The ratio of pERK to ERK was calculated and compared with that of the DMSO group, and the percentage of inhibition of pERK activity by the compound was calculated.

Row | SMILES | IC50 (H358 cells) | inhibition at 1 µM (pERK level in H358 cells)
1 | C=C(F)C(=O)N1CC2(CCN(c3nc(N4CC5(CCN(CCC#N)CC5)C4)nc4c(OCC(F)(F)F)c(-c5c(C)ccc6[nH]ncc56)c(C5CC5)cc34)CC2)C1 [Compound 88] | 300 to 1000 nM | 50 to 90%
2 | C=CC(=O)N1CC2(CCN(c3nc(N4CC5(CCN(C6COC6)CC5)C4)nc4c(OCC(F)(F)F)c(-c5c(C)ccc6[nH]ncc56)c(C5CC5)cc34)CC2)C1 [Compound 89] | < 300 nM | > 90%
3 | C=C(F)C(=O)N1CC2(CCN(c3nc(N4CC5(CCN(C6COC6)CC5)C4)nc4c(OCC(F)(F)F)c(-c5c(C)ccc6[nH]ncc56)c(C5CC5)cc34)CC2)C1 [Compound 90] | < 300 nM | > 90%
4 | C=CC(=O)N1CC2(CCN(c3nc(N4CC5(CCN(CCOC)CC5)C4)nc4c(OCC(F)(F)F)c(-c5c(C)ccc6[nH]ncc56)c(C5CC5)cc34)CC2)C1 [Compound 91] | < 300 nM | > 90%
5 | C=C(F)C(=O)N1CC2(CCN(c3nc(N4CC5(CCN(CCOC)CC5)C4)nc4c(OCC(F)(F)F)c(-c5c(C)ccc6[nH]ncc56)c(C5CC5)cc34)CC2)C1 [Compound 92] | < 300 nM | > 90%
6 | C=CC(=O)N1CC2(CCN(c3nc(N4CC5(CCN(CCOCC)CC5)C4)nc4c(OCC(F)(F)F)c(-c5c(C)ccc6[nH]ncc56)c(C5CC5)cc34)CC2)C1 [Compound 93] | < 300 nM | > 90%
7 | C=C(F)C(=O)N1CC2(CCN(c3nc(N4CC5(CCN(CCOCC)CC5)C4)nc4c(OCC(F)(F)F)c(-c5c(C)ccc6[nH]ncc56)c(C5CC5)cc34)CC2)C1 [Compound 94] | < 300 nM | > 90%
8 | C=CC(=O)N1CC2(CCN(c3nc(N4CC5(CCN(CCCOC)CC5)C4)nc4c(OCC(F)(F)F)c(-c5c(C)ccc6[nH]ncc56)c(C5CC5)cc34)CC2)C1 [Compound 95] | < 300 nM | > 90%
9 | C=C(F)C(=O)N1CC2(CCN(c3nc(N4CC5(CCN(CCCOC)CC5)C4)nc4c(OCC(F)(F)F)c(-c5c(C)ccc6[nH]ncc56)c(C5CC5)cc34)CC2)C1 [Compound 96] | < 300 nM | > 90%
10 | C=CC(=O)N1CC2(CCN(c3nc(N4CCC5(CN(C)C5)C4)nc4c(OCC(F)(F)F)c(-c5c(C)ccc6[nH]ncc56)c(C5CC5)cc34)CC2)C1 [Compound 97] | 300 to 1000 nM | 50 to 90%
11 | C=C(F)C(=O)N1CC2(CCN(c3nc(N4CCC5(CN(C)C5)C4)nc4c(OCC(F)(F)F)c(-c5c(C)ccc6[nH]ncc56)c(C5CC5)cc34)CC2)C1 [Compound 98] | 300 to 1000 nM | 50 to 90%
12 | C=CC(=O)N1CC2(CCN(c3nc(N4CCC5(CN(CCOC)C5)C4)nc4c(OCC(F)(F)F)c(-c5c(C)ccc6[nH]ncc56)c(C5CC5)cc34)CC2)C1 [Compound 99] | < 300 nM | > 90%
13 | C=C(F)C(=O)N1CC2(CCN(c3nc(N4CCC5(CN(CCOC)C5)C4)nc4c(OCC(F)(F)F)c(-c5c(C)ccc6[nH]ncc56)c(C5CC5)cc34)CC2)C1 [Compound 100] | < 300 nM | > 90%
14 | C=CC(=O)N1CC2(CCN(c3nc(N4CCC5(CCN(CCOC)CC5)C4)nc4c(OCC(F)(F)F)c(-c5c(C)ccc6[nH]ncc56)c(C5CC5)cc34)CC2)C1 [Compound 101] | < 300 nM | > 90%
15 | C=C(F)C(=O)N1CC2(CCN(c3nc(N4CCC5(CCN(CCOC)CC5)C4)nc4c(OCC(F)(F)F)c(-c5c(C)ccc6[nH]ncc56)c(C5CC5)cc34)CC2)C1 [Compound 102] | < 300 nM | > 90%
16 | C=CC(=O)N1CC2(CCN(c3nc(N4CCC5(CC4)CN(CCOC)C5)nc4c(OCC(F)(F)F)c(-c5c(C)ccc6[nH]ncc56)c(C5CC5)cc34)CC2)C1 [Compound 103] | < 300 nM | > 90%
17 | C=C(F)C(=O)N1CC2(CCN(c3nc(N4CCC5(CC4)CN(CCOC)C5)nc4c(OCC(F)(F)F)c(-c5c(C)ccc6[nH]ncc56)c(C5CC5)cc34)CC2)C1 [Compound 104] | 300 to 1000 nM | 50 to 90%
